Test results as given in ChEMBL document CHEMBL3885881, “DrugMatrix”.

Organism: Rattus norvegicus
Assay: DrugMatrix - Regimen: Daily Repeat
Format: toxicity, organism-based, Sprague-Dawley
Set-up: regimen Daily Repeat, gender Male, age 6-8 weeks
Conditions: in vivo, po, route oral GAVAGE, […]; for ABSOLUTE BASOPHIL / ABSOLUTE EOSINOPHIL / ABSOLUTE LYMPHOCYTE / ABSOLUTE MONOCYTE / ABSOLUTE SEGMENTED NEUTROPHIL / BASOPHIL / EOSINOPHIL / ERYTHROCYTE COUNT / HEMATOCRIT / HEMOGLOBIN / LEUKOCYTE COUNT / LYMPHOCYTE / MEAN CORPUSCULAR HEMOGLOBIN / MEAN CORPUSCULAR HEMOGLOBIN CONCENTRATION / MEAN CORPUSCULAR VOLUME / MONOCYTE / NEUTROPHIL / NUCLEATED RED BLOOD CELLS / PLATELET COUNT: tissue Blood; for ALANINE AMINOTRANSFERASE / ALBUMIN / ALKALINE PHOSPHATASE / ASPARTATE AMINOTRANSFERASE / BLOOD UREA NITROGEN / CARBON DIOXIDE / CHLORIDE / CHOLESTEROL / CREATINE PHOSPHOKINASE / CREATININE / GLUCOSE / LACTATE DEHYDROGENASE / LIPASE / PHOSPHORUS / POTASSIUM / SODIUM / TOTAL BILIRUBIN / TOTAL PROTEIN / URIC ACID: tissue Plasma
[1] = 79 mg/kg, 72 h, dose level Low, time 3 day
[2] = 79 mg/kg, 120 h, dose level Low, time 5 day
[3] = 2500 mg/kg, 72 h, dose level High, time 3 day
[4] = 2500 mg/kg, 120 h, dose level High, time 5 day

## COc1ccc2cc(CCC(C)=O)ccc2c1 [NABUMETONE]
[1]
  ABSOLUTE BASOPHIL: 0 CELLS/uL
  ABSOLUTE EOSINOPHIL: 0 CELLS/uL
  ABSOLUTE LYMPHOCYTE: 14572 CELLS/uL
  ABSOLUTE MONOCYTE: 0 CELLS/uL
  ABSOLUTE SEGMENTED NEUTROPHIL: 1228 CELLS/uL
  BASOPHIL: 0%
  EOSINOPHIL: 0%
  ERYTHROCYTE COUNT: 5.17 x10E6/uL
  HEMATOCRIT: 32.13%
  HEMOGLOBIN: 12.87 G/DL
  LEUKOCYTE COUNT: 15.8 x10E3/uL
  LYMPHOCYTE: 92.33%
  MEAN CORPUSCULAR HEMOGLOBIN: 24.87 pg
  MEAN CORPUSCULAR HEMOGLOBIN CONCENTRATION: 40.07 G/DL
  MEAN CORPUSCULAR VOLUME: 62.1 fL
  MONOCYTE: 0%
  NEUTROPHIL: 7.67%
  NUCLEATED RED BLOOD CELLS: 0 /100WBC
  PLATELET COUNT: 1308.67 x10E3/uL
  ALANINE AMINOTRANSFERASE: 72.33 u/L
  ALBUMIN: 4 G/DL
  ALKALINE PHOSPHATASE: 371 u/L
  ASPARTATE AMINOTRANSFERASE: 79.33 u/L
  BLOOD UREA NITROGEN: 15.67 mg/dL
  CARBON DIOXIDE: 31 mmol/L
  CHLORIDE: 103 MEQ/L
  CHOLESTEROL: 83.67 mg/dL
  CREATINE PHOSPHOKINASE: 226.33 u/L
  CREATININE: 0.12 mg/dL
  GLUCOSE: 150.67 mg/dL
  LACTATE DEHYDROGENASE: 93.33 u/L
  LIPASE: 10 u/L
  PHOSPHORUS: 12.3 mg/dL
  POTASSIUM: 6.52 MEQ/L
  SODIUM: 144.77 MEQ/L
  TOTAL BILIRUBIN: 0.13 mg/dL
  TOTAL PROTEIN: 5.33 G/DL
  URIC ACID: 1.73 mg/dL
[2]
  ABSOLUTE BASOPHIL: 0 CELLS/uL
  ABSOLUTE EOSINOPHIL: 33.67 CELLS/uL
  ABSOLUTE LYMPHOCYTE: 9495 CELLS/uL
  ABSOLUTE MONOCYTE: 148 CELLS/uL
  ABSOLUTE SEGMENTED NEUTROPHIL: 1090 CELLS/uL
  BASOPHIL: 0%
  EOSINOPHIL: 0.33%
  ERYTHROCYTE COUNT: 5.45 x10E6/uL
  HEMATOCRIT: 33.1%
  HEMOGLOBIN: 13.23 G/DL
  LEUKOCYTE COUNT: 10.77 x10E3/uL
  LYMPHOCYTE: 88.33%
  MEAN CORPUSCULAR HEMOGLOBIN: 24.3 pg
  MEAN CORPUSCULAR HEMOGLOBIN CONCENTRATION: 39.97 G/DL
  MEAN CORPUSCULAR VOLUME: 60.83 fL
  MONOCYTE: 1.33%
  NEUTROPHIL: 10%
  NUCLEATED RED BLOOD CELLS: 0 /100WBC
  PLATELET COUNT: 1115 x10E3/uL
  ALANINE AMINOTRANSFERASE: 69.33 u/L
  ALBUMIN: 4.1 G/DL
  ALKALINE PHOSPHATASE: 332 u/L
  ASPARTATE AMINOTRANSFERASE: 95.67 u/L
  BLOOD UREA NITROGEN: 12.33 mg/dL
  CARBON DIOXIDE: 33 mmol/L
  CHLORIDE: 103 MEQ/L
  CHOLESTEROL: 61.33 mg/dL
  CREATINE PHOSPHOKINASE: 321 u/L
  CREATININE: 0.15 mg/dL
  GLUCOSE: 173.33 mg/dL
  LACTATE DEHYDROGENASE: 214.67 u/L
  LIPASE: 9.67 u/L
  PHOSPHORUS: 11.03 mg/dL
  POTASSIUM: 5.83 MEQ/L
  SODIUM: 145.17 MEQ/L
  TOTAL BILIRUBIN: 0.13 mg/dL
  TOTAL PROTEIN: 5.53 G/DL
  URIC ACID: 1.13 mg/dL
[3]
  ABSOLUTE BASOPHIL: 0 CELLS/uL
  ABSOLUTE EOSINOPHIL: 0 CELLS/uL
  ABSOLUTE LYMPHOCYTE: 9646 CELLS/uL
  ABSOLUTE MONOCYTE: 275 CELLS/uL
  ABSOLUTE SEGMENTED NEUTROPHIL: 3829 CELLS/uL
  BASOPHIL: 0%
  EOSINOPHIL: 0%
  ERYTHROCYTE COUNT: 4.08 x10E6/uL
  HEMATOCRIT: 26.8%
  HEMOGLOBIN: 10.45 G/DL
  LEUKOCYTE COUNT: 13.75 x10E3/uL
  LYMPHOCYTE: 70%
  MEAN CORPUSCULAR HEMOGLOBIN: 25.55 pg
  MEAN CORPUSCULAR HEMOGLOBIN CONCENTRATION: 38.9 G/DL
  MEAN CORPUSCULAR VOLUME: 65.7 fL
  MONOCYTE: 2%
  NEUTROPHIL: 28%
  NUCLEATED RED BLOOD CELLS: 0 /100WBC
  PLATELET COUNT: 873.5 x10E3/uL
  ALANINE AMINOTRANSFERASE: 41 u/L
  ALBUMIN: 2.7 G/DL
  ALKALINE PHOSPHATASE: 286.5 u/L
  ASPARTATE AMINOTRANSFERASE: 125 u/L
  BLOOD UREA NITROGEN: 15.5 mg/dL
  CARBON DIOXIDE: 28.5 mmol/L
  CHLORIDE: 94 MEQ/L
  CHOLESTEROL: 75 mg/dL
  CREATINE PHOSPHOKINASE: 410 u/L
  CREATININE: 0.17 mg/dL
  GLUCOSE: 134 mg/dL
  LACTATE DEHYDROGENASE: 144 u/L
  LIPASE: 9 u/L
  PHOSPHORUS: 12 mg/dL
  POTASSIUM: 6.89 MEQ/L
  SODIUM: 136.5 MEQ/L
  TOTAL BILIRUBIN: 0.1 mg/dL
  TOTAL PROTEIN: 4.95 G/DL
  URIC ACID: 1.35 mg/dL
[4]
  ABSOLUTE BASOPHIL: 0 CELLS/uL
  ABSOLUTE EOSINOPHIL: 0 CELLS/uL
  ABSOLUTE LYMPHOCYTE: 3068 CELLS/uL
  ABSOLUTE MONOCYTE: 0 CELLS/uL
  ABSOLUTE SEGMENTED NEUTROPHIL: 8732 CELLS/uL
  BASOPHIL: 0%
  EOSINOPHIL: 0%
  ERYTHROCYTE COUNT: 2.58 x10E6/uL
  HEMATOCRIT: 15.9%
  HEMOGLOBIN: 6.6 G/DL
  LEUKOCYTE COUNT: 11.8 x10E3/uL
  LYMPHOCYTE: 26%
  MEAN CORPUSCULAR HEMOGLOBIN: 25.6 pg
  MEAN CORPUSCULAR HEMOGLOBIN CONCENTRATION: 41.5 G/DL
  MEAN CORPUSCULAR VOLUME: 61.8 fL
  MONOCYTE: 0%
  NEUTROPHIL: 74%
  NUCLEATED RED BLOOD CELLS: 0 /100WBC
  PLATELET COUNT: 1731 x10E3/uL
  ALANINE AMINOTRANSFERASE: 34 u/L
  ALBUMIN: 2.4 G/DL
  ALKALINE PHOSPHATASE: 326 u/L
  ASPARTATE AMINOTRANSFERASE: 66 u/L
  BLOOD UREA NITROGEN: 17 mg/dL
  CARBON DIOXIDE: 28 mmol/L
  CHLORIDE: 97 MEQ/L
  CHOLESTEROL: 55 mg/dL
  CREATINE PHOSPHOKINASE: 158 u/L
  CREATININE: 0.13 mg/dL
  GLUCOSE: 102 mg/dL
  LACTATE DEHYDROGENASE: 80 u/L
  LIPASE: 9 u/L
  PHOSPHORUS: 7.6 mg/dL
  POTASSIUM: 6.79 MEQ/L
  SODIUM: 138 MEQ/L
  TOTAL BILIRUBIN: 0.2 mg/dL
  TOTAL PROTEIN: 4.7 G/DL
  URIC ACID: 0.9 mg/dL
